In ChEMBL document CHEMBL3044903, “Synthesis and Herbicidal Activity of Novel 3-Alkoxycarbonyl-3-aryl-2,3-dihydro-2-oxo-1H-pyrrole Derivatives” (J Pestic Sci, 2004):

Assays:
[1] = test system: Schoenoplectiella juncoides; test: Pre-emergence herbicide activity against Schoenoplectiella juncoides under greenhouse condition at 1 g a.i/a measured after 3 weeks; type: functional
Echinochloa oryzicola [2] = test: Pre-emergence herbicide activity against Echinochloa oryzicola under greenhouse condition at 1 g a.i/a measured after 3 weeks; type: functional
[3] = test system: Schoenoplectiella juncoides; test: Pre-emergence herbicide activity against Schoenoplectiella juncoides under greenhouse condition at 10 g a.i/a measured after 3 weeks; type: functional
Echinochloa oryzicola [4] = test: Post-emergence herbicide activity against Echinochloa oryzicola under greenhouse condition at 1 g a.i/a treated at one-leaf stage measured after 3 weeks; type: functional
[5] = test system: Schoenoplectiella juncoides; test: Post-emergence herbicide activity against Schoenoplectiella juncoides under greenhouse condition at 10 g a.i/a treated at one-leaf stage measured after 3 weeks; type: functional
Echinochloa oryzicola [6] = test: Post-emergence herbicide activity against Echinochloa oryzicola under greenhouse condition at 10 g a.i/a treated at one-leaf stage measured after 3 weeks; type: functional
Echinochloa oryzicola [7] = test: Pre-emergence herbicide activity against Echinochloa oryzicola under greenhouse condition at 10 g a.i/a measured after 3 weeks; type: functional
[8] = test system: Schoenoplectiella juncoides; test: Post-emergence herbicide activity against Schoenoplectiella juncoides under greenhouse condition at 1 g a.i/a treated at one-leaf stage measured after 3 weeks; type: functional
Oryza sativa [9] = test: Phytotoxicity against two-leaf stage Oryza sativa cv. Nipponbare (rice) planted zero cm depth at 2.5 g a.i/a measured after 3 weeks; type: organism-based; details: in vivo, other, 504 h
Echinochloa oryzicola [10] = test: Herbicidal activity against Echinochloa oryzicola at 5.0 g a.i/a treated at 1.5 leaf stage measured after 3 weeks; type: functional
Oryza sativa [11] = test: Phytotoxicity against two-leaf stage Oryza sativa cv. Nipponbare (rice) planted 2 cm depth at 5.0 g a.i/a measured after 3 weeks; type: organism-based; details: in vivo, 504 h
Echinochloa oryzicola [12] = test: Herbicidal activity against Echinochloa oryzicola at 2.5 g a.i/a treated at 1.5 leaf stage measured after 3 weeks; type: functional
Echinochloa oryzicola [13] = test: Herbicidal activity against Echinochloa oryzicola at 1 g a.i/a treated at 2.5 leaf stage measured after 3 weeks; type: functional
Echinochloa oryzicola [14] = test: Herbicidal activity against Echinochloa oryzicola at 1 g a.i/a treated at 1.5 leaf stage measured after 3 weeks; type: functional
Oryza sativa [15] = test: Phytotoxicity against two-leaf stage Oryza sativa cv. Nipponbare (rice) planted zero cm depth at 5.0 g a.i/a measured after 3 weeks; type: organism-based; details: in vivo, 504 h
Echinochloa oryzicola [16] = test: Herbicidal activity against Echinochloa oryzicola at 2.5 g a.i/a treated at 2.5 leaf stage measured after 3 weeks; type: functional
Echinochloa oryzicola [17] = test: Herbicidal activity against Echinochloa oryzicola at 5.0 g a.i/a treated at 2.5 leaf stage measured after 3 weeks; type: functional
Oryza sativa [18] = test: Phytotoxicity against two-leaf stage Oryza sativa cv. Nipponbare (rice) planted 2 cm depth at 2.5 g a.i/a measured after 3 weeks; type: organism-based; details: in vivo, 504 h
Oryza sativa [19] = test: Phytotoxicity against two-leaf stage Oryza sativa cv. Nipponbare (rice) planted zero cm depth at 1 g a.i/a measured after 3 weeks; type: organism-based; details: in vivo, other, 504 h
Oryza sativa [20] = test: Phytotoxicity against two-leaf stage Oryza sativa cv. Nipponbare (rice) planted 2 cm depth at 1 g a.i/a measured after 3 weeks; type: organism-based; details: in vivo, other, 504 h
Oryza sativa [21] = test: Phytotoxicity against two-leaf stage Oryza sativa cv. Nipponbare (rice) planted 2 cm depth assessed as crop injury at 2 g a.i/a followed by leaching of irrigation water for 3 days measured after 3 weeks post-treatment; type: organism-based; details: in vivo, other, 504 h
Oryza sativa [22] = test: Phytotoxicity against two-leaf stage Oryza sativa cv. Nipponbare (rice) planted 2 cm depth assessed as crop injury at 4 g a.i/a followed by leaching of irrigation water for 3 days measured after 3 weeks post-treatment; type: organism-based; details: in vivo, other, 504 h

Compound	Activity [1] [%]	Activity (Echinochloa oryzicola [2]) [%]	Activity [3] [%]	Activity (Echinochloa oryzicola [4]) [%]	Activity [5] [%]	Activity (Echinochloa oryzicola [6]) [%]	Activity (Echinochloa oryzicola [7]) [%]	Activity [8] [%]	Activity (Oryza sativa [9]) [%]	Activity (Echinochloa oryzicola [10]) [%]	Activity (Oryza sativa [11]) [%]	Activity (Echinochloa oryzicola [12]) [%]	Activity (Echinochloa oryzicola [13]) [%]	Activity (Echinochloa oryzicola [14]) [%]	Activity (Oryza sativa [15]) [%]	Activity (Echinochloa oryzicola [16]) [%]	Activity (Echinochloa oryzicola [17]) [%]	Activity (Oryza sativa [18]) [%]	other results
COC(=O)C1(c2ccccc2)C(=O)N(C(C)(C)c2cnc3ccccc3c2)C=C1C (stereo unspecified)	50.1	100	100	0	87.6	100	100	0											
COC(=O)C1(c2ccccc2)C(=O)N(C(C)(C)c2cc(Cl)cc(Cl)c2)C=C1COC(C)=O (stereo unspecified)	0	75.1	100	0.1	87.6	100	100	0.1											
CC1=C(c2ccccc2)C(=O)N(C(C)(C)c2cc(Cl)cc(Cl)c2)C1	100	100	100	87.6	87.6	100	100	75.1	90	98	0	95	40	60	98	95	98	0	
COC(=O)C1(c2ccccc2)C(=O)N(C(C)(C)c2cccc(Cl)n2)C=C1C (stereo unspecified)	100	100	100	0	87.6	87.6	100	87.6											
COC(=O)C1(c2ccccc2)C(=O)N(C(C)(C)c2cc(Cl)cc(Cl)c2)C=C1C=O (stereo unspecified)	50.1	100	100	0	87.6	87.6	100	50.1											
COC(=O)C1(c2ccccc2)C(=O)N(C(C)(C)c2cc(Cl)cc(Cl)c2)C=C1/C=N/O (stereo unspecified)	0	0	75.1	0	0.1	0.1	100	0											
COC(=O)C1(c2ccccc2)C(=O)N(C(C)(C)c2ccc3ccccc3c2)C=C1C (stereo unspecified)	0	87.6	87.6	0.1	87.6	100	100	0											
CC1=CN(C(C)(C)c2cc(Cl)cc(Cl)c2)C(=O)C1(C(=O)OCc1ccccc1)c1ccccc1 (stereo unspecified)	0	0	0	50.1	0	100	100	0											
COC(=O)C1(c2ccccc2)C(=O)N(C(C)(C)c2cc(Cl)cc(Cl)c2)C=C1C(F)F (stereo unspecified)	0	0	87.6	0	50.1	87.6	100	0											
COCC1=CN(C(C)(C)c2cc(Cl)cc(Cl)c2)C(=O)C1(C(=O)OC)c1ccccc1 (stereo unspecified)	50.1	100	100	75.1	87.6	100	100	87.6	30	100	0	99			98	65	98	0	
COC(=O)C1(c2ccccc2)C(=O)N(C(C)(C)c2cc(Cl)cc(Cl)c2)C=C1C#N (stereo unspecified)	0	0	87.6	0	0.1	0	100	0											
C=C1CN(C(C)(C)c2cc(Cl)cc(Cl)c2)C(=O)C1(C(=O)OC)c1ccccc1F (stereo unspecified)									80	99	0	99	65	99	98	95	95	0	
COC(=O)C1(c2ccccc2)C(=O)N(C(C)(C)c2cccc(Cl)c2)C=C1C (stereo unspecified)	50.1	100	100	50.1	87.6	100	100	87.6	95	100	0	100	40	99	98	90	99	0	Activity (Oryza sativa [19]): 80%; Activity (Oryza sativa [20]): 0%
COC(=O)C1(c2ccccc2)C(=O)N(C(C)(C)c2cc(Cl)nc(Cl)c2)C=C1C (stereo unspecified)	100	100	100	50.1	87.6	100	100	87.6	70	99	0	99	50	75	80	90	98	0	Activity (Oryza sativa [19]): 30%; Activity (Oryza sativa [20]): 0%
CCOC(=O)C1(c2ccccc2)C(=O)N(C(C)(C)c2cc(Cl)cc(Cl)c2)C=C1C (stereo unspecified)	75.1	100	100	87.6	75.1	100	100	0											
COC(=O)C1(c2ccccc2F)C(=O)N(C(C)(C)c2cc(Cl)cc(Cl)c2)C=C1C (stereo unspecified)	0.1	100	100	100	87.6	100	100	0.1	5	100	0	99	80	99	30	90	100	0	Activity (Oryza sativa [19]): 0%; Activity (Oryza sativa [21]): 0%; Activity (Oryza sativa [22]): 20%; Activity (Oryza sativa [20]): 0%
C=C1CN(C(C)(C)c2cc(Cl)cc(Cl)c2)C(=O)C1(C(=O)OC)c1ccccc1 (stereo unspecified)									95	100	0	99	40	99	99	99	99	0	Activity (Oryza sativa [19]): 70%; Activity (Oryza sativa [20]): 0%
COC(=O)C1(c2ccccc2)C(=O)N(C(C)(C)c2cc(F)cc(F)c2)C=C1C (stereo unspecified)	100	75.1	100	50.1	87.6	100	100	87.6											
COC(=O)C1(c2ccccc2)C(=O)N(C(C)(C)c2cc(Cl)cc(Cl)c2)C=C1CO (stereo unspecified)	87.6	100	100	87.6	87.6	100	100	87.6	60	99	0	99	30	97	65	75	99	0	Activity (Oryza sativa [19]): 0%; Activity (Oryza sativa [20]): 0%
